Results from patent publication US20230042881A1, “MODULATORS OF INTEGRATED STRESS RESPONSE PATHWAY” (Praxis Biotech LLC, priority 2021, published 2023).
pIC50: −log10 of the molar value. Read-outs that look alike come from different tables or passages of the source.

Key:
[1] = system: Chinese hamster ovary (CHO) cells; assay: Protein synthesis assay (puromycin incorporation, Western blot); type: cell-based; conditions: Cricetulus griseus, read-out: % Protein synthesis relative to untreated (1 μM test compound)
Experimental: Chinese hamster ovary (CHO) cells were maintained at 37° C. and 5% CO2 in Dulbecco's Modified Eagle's Media (DMEM) supplemented with 10% fetal bovine serum, 2 mM L-glutamine, 100 U/ml penicillin, and 100 μg/ml streptomycin. After reaching 80% of confluence, cells were detached and seeded on 6 well plates in complete media, allowed to recover overnight and treated for 2 hours with 1 μM of the test compound (to assess protein synthesis levels in unstressed condition), or for 2 hours with 300 nM Tg in the presence of 1 μM of the test compound (to assess the recovery of protein synthesis in a stressed condition). Cells with Tg alone were used as controls.
After the 2 hours treatments, media were replaced by adding 10 μg/ml puromycin (Sigma Aldrich #P8833) in complete media for 30 min. Media were removed and cells were lysed with SDS-PAGE lysis buffer. Lysates were transferred to 1.5 ml tubes and sonicated for 3 min and total protein amount were quantified using BCA Protein Assay Kit (Pierce). Equal amount of protein (30 μg) was loaded on SDS-PAGE gels.
A HRP-conjugated secondary antibody (Rockland) was employed to detect immune-reactive bands using enhanced chemiluminescence (ECL Western Blotting Substrate, Pierce). Quantification of protein bands was done by densitometry using ImageJ software.
The percentage levels were normalized to the media alone condition, which correspond to 100% protein synthesis. […]

ATF4 = ATF4 expression inhibition assay (ATF4 5′UTR luciferase reporter, thapsigargin-stressed); type: cell-based; conditions: Homo sapiens, HEK-293T, read-out: ATF4 inhibition
Experimental: The ATF4 reporter was prepared by fusing the human full length 5′UTR of ATF4 (NCBI Accession No. BC022088.2) upstream of the firefly luciferase coding sequence lacking the initiator methionine. The fused sequence was cloned into pLenti-EF1a-C-Myc-DDK-IRES-Puro cloning vector (Origen #PS100085) using standard methods.
HEK293T cells carrying the ATF4 luciferase reporter were plated on 96-well plates (Nunc) at 10,000 cells per well. Cells were treated two days after seeding with 100 nM thapsigargin (Tg) (Sigma-Aldrich #T9033) in the presence of different concentrations of selected compounds ranging from 0.1 nM to […]. Cells without treatment or cells treated with Tg alone were used as controls. Assay plates containing cells were incubated for 3 hours at 37° C.
Luciferase reactions were performed using Luciferase Assay System (Promega #E1501) as specified by the manufacturer. Luminescence was read with an integration time of 1 s and a gain of 110 using a Cytation-5 multi-mode microplate reader (BioTek).

[2] = unstressed CHO cells (without Tg), 2 hours, 1 μM test compound, media alone = 100%
[3] = HEK293T cells carrying ATF4 luciferase reporter, 100 nM thapsigargin (Tg), 3 hours at 37° C.

pIC50 (ATF4; 3 h) | pIC50 (ATF4; [3]) | SMILES | activity at 1 µM ([1]; CHO, 2 h) [%] | activity at 1 µM [1, 2] [%]
7.00 to 8.00 |  | O=C(N[C@H]1CC[C@H](C(=O)Nc2nc3cc(Cl)ccc3o2)CC1)c1ccc2cc(Cl)ccc2n1 [Compound 99, 6-chloro-N-(trans-4-((5-chlorobenzo[d]oxazol-2-yl)carbamoyl)cyclohexyl)quinoline-2-carboxamide] | 84.8 | 
7.00 to 8.00 |  | O=C(COc1ccc(Cl)c(F)c1)N[C@H]1CC[C@H](C(=O)Nc2nc3cc(Cl)ccc3o2)CC1 [Compound 13, trans-4-(2-(4-chloro-3-fluorophenoxy)acetamido)-N-(5-chlorobenzo[d]oxazol-2-yl)cyclohexane-1-carboxamide] | 104 | 
 | 7.00 to 8.00 | O=C(N[C@H]1CC[C@H](C(=O)NCc2cc3cc(Cl)ccc3o2)CC1)C1CNc2cc(Cl)ccc2O1 (stereo partly drawn) [Compound 49, 6-chloro-N-(trans-4-(((5-chlorobenzofuran-2-yl)methyl)carbamoyl)cyclohexyl)-3,4-dihydro-2H-benzo[b][1,4]oxazine-2-carboxamide] |  | 122
 | > 8.00 | O=C(N[C@H]1CC[C@H](C(=O)NCc2cc3cc(Cl)ccc3o2)CC1)c1ccc2cc(Cl)ccc2n1 [Compound 43, 6-chloro-N-(trans-4-(((5-chlorobenzofuran-2-yl)methyl)carbamoyl)cyclohexyl)quinoline-2-carboxamide] |  | 85.2
 | > 8.00 | O=C(N[C@H]1CC[C@H](C(=O)Nc2ccc3cc(Cl)ccc3n2)CC1)C1CNc2cc(Cl)ccc2O1 (stereo partly drawn) [Compound 5, trans-6-chloro-N-(4-((6-chloroquinolin-2-yl)carbamoyl)cyclohexyl)-3,4-dihydro-2H-benzo[b][1,4]oxazine-2-carboxamide] |  | 195
 | > 8.00 | O=C(COc1ccc(Cl)c(F)c1)NN1CCC(C(=O)NCC2CNc3cc(Cl)ccc3O2)CC1 (centres unmarked) [Compound 68, N-((6-chloro-3,4-dihydro-2H-benzo[b][1,4]oxazin-2-yl)methyl)-1-(2-(4-chloro-3-fluorophenoxy)acetamido)piperidine-4-carboxamide] |  | 98.3
 | > 8.00 | O=C(NN1CCC(C(=O)NCc2cc3cc(Cl)ccc3o2)CC1)c1cc2cc(Cl)ccc2o1 [Compound 48, 1-(5-chlorobenzofuran-2-carboxamido)-N-((5-chlorobenzofuran-2-yl)methyl)piperidine-4-carboxamide] |  | 109
 | > 8.00 | O=C(N[C@H]1CC[C@H](C(=O)Nc2ccc3cc(Cl)ccc3n2)CC1)[C@@H]1CNc2cc(Cl)ccc2O1 [Compound 7, trans-(S)-6-chloro-N-(4-((6-chloroquinolin-2-yl)carbamoyl)cyclohexyl)-3,4-dihydro-2H-benzo[b][1,4]oxazine-2-carboxamide] |  | 115
 | > 8.00 | O=C(N[C@H]1CC[C@H](C(=O)NCC2CNc3cc(Cl)ccc3O2)CC1)c1cc2cc(Cl)ccc2o1 (stereo partly drawn) [Compound 75, 5-chloro-N-(trans-4-(((6-chloro-3,4-dihydro-2H-benzo[b][1,4]oxazin-2-yl)methyl)carbamoyl)cyclohexyl)benzofuran-2-carboxamide] |  | 114
 | 7.00 to 8.00 | O=C(NCc1cc2cc(Cl)ccc2o1)C1CCN(NC(=O)C2CNc3cc(Cl)ccc3O2)CC1 (centres unmarked) [Compound 50, 6-chloro-N-(4-(((5-chlorobenzofuran-2-yl)methyl)carbamoyl)piperidin-1-yl)-3,4-dihydro-2H-benzo[b][1,4]oxazine-2-carboxamide] |  | 85.1

Continued, compound first:

SMILES | pIC50 (ATF4; 3 h) | pIC50 (ATF4; [3]) | activity at 1 µM ([1]; CHO, 2 h) [%] | activity at 1 µM [1, 2] [%]
O=C(COc1ccc(Cl)c(F)c1)N[C@H]1CC[C@H](C(=O)Nc2ccc3cc(Cl)ccc3n2)CC1 [Compound 3, trans-4-(2-(4-chloro-3-fluorophenoxy)acetamido)-N-(6-chloroquinolin-2-yl)cyclohexane-1-carboxamide] |  | > 8.00 |  | 188
O=C(COc1ccc(Cl)c(F)c1)NN1CCC(C(=O)Nc2ccc3cc(Cl)ccc3n2)CC1 [Compound 16, 1-(2-(4-chloro-3-fluorophenoxy)acetamido)-N-(6-chloroquinolin-2-yl)piperidine-4-carboxamide] |  | > 8.00 |  | 133
O=C(COc1ccc(Cl)cc1)N[C@H]1CC[C@H](C(=O)Nc2ccc3cc(Cl)ccc3n2)CC1 [Compound 1, trans-4-(2-(4-chlorophenoxy)acetamido)-N-(6-chloroquinolin-2-yl)cyclohexane-1-carboxamide] | > 8.00 |  | 91.8 | 
O=C(Nc1ccc2cc(Cl)ccc2n1)[C@H]1CC[C@H](C(=O)Nc2ccc3cc(Cl)ccc3n2)CC1 [Compound 17, trans-N^1,N^4-bis(6-chloroquinolin-2-yl)cyclohexane-1,4-dicarboxamide] |  | 7.00 to 8.00 |  | 110
O=C(COc1ccc(Cl)c(F)c1)N[C@H]1CC[C@H](C(=O)Nc2nc3cc(Cl)ccc3s2)CC1 [Compound 14, trans-4-(2-(4-chloro-3-fluorophenoxy)acetamido)-N-(5-chlorobenzo[d]thiazol-2-yl)cyclohexane-1-carboxamide] |  | > 8.00 |  | 105
O=C(N[C@H]1CC[C@H](C(=O)Nc2ccc3cc(Cl)ccc3n2)CC1)c1ccc2cc(Cl)ccc2n1 [Compound 2, trans-6-chloro-N-(4-((6-chloroquinolin-2-yl)carbamoyl)cyclohexyl)quinoline-2-carboxamide] |  | > 8.00 |  | 163
O=C(NN1CCC(C(=O)Nc2nc3cc(Cl)ccc3o2)CC1)c1ccc2cc(Cl)ccc2n1 [Compound 100, 6-chloro-N-(4-(5-chlorobenzo[d]oxazol-2-ylcarbamoyl)piperidin-1-yl)quinoline-2-carboxamide] | 7.00 to 8.00 |  | 128 | 
O=C(COc1ccc(Cl)c(F)c1)NN1CCC(C(=O)NCc2cc3cc(Cl)ccc3o2)CC1 [Compound 40, 1-(2-(4-chloro-3-fluorophenoxy)acetamido)-N-((5-chlorobenzofuran-2-yl)methyl)piperidine-4-carboxamide] |  | > 8.00 |  | 121
O=C(COc1ccc(C(F)(F)F)cc1)N[C@H]1CC[C@H](C(=O)Nc2ccc3cc(Cl)ccc3n2)CC1 [Compound 35, trans-N-(6-chloroquinolin-2-yl)-4-(2-(4-(trifluoromethyl)phenoxy)acetamido)cyclohexanecarboxamide] |  | > 8.00 |  | 82.9
O=C(Nc1ccc2cc(Cl)ccc2n1)C1CCN(NC(=O)[C@H]2C[C@@H](O)c3cc(Cl)ccc3O2)CC1 [Compound 124, 1-((2R,4R)-6-chloro-4-hydroxychroman-2-carboxamido)-N-(6-chloroquinolin-2-yl)piperidine-4-carboxamide] |  | > 8.00 |  | 183
O=C(NN1CCC(C(=O)NCc2cc3cc(Cl)ccc3o2)CC1)c1ccc2cc(Cl)ccc2n1 [Compound 44, 6-chloro-N-(4-(((5-chlorobenzofuran-2-yl)methyl)carbamoyl)piperidin-1-yl)quinoline-2-carboxamide] |  | > 8.00 |  | 96.8
O=C(CO[C@H]1C[C@@H](OC(F)(F)F)C1)NN1CCC(C(=O)Nc2ccc3cc(Cl)ccc3n2)CC1 [Compound 25, N-(6-chloroquinolin-2-yl)-1-(2-((1s, 3s)-3-(trifluoromethoxy)cyclobutoxy)acetamido)piperidine-4-carboxamide] |  | > 8.00 |  | 96.1
